# In patent US20260262643A1, “HERBICIDAL BENZOXAZINES” (FMC CORPORATION, priority 2022, published 2026):
# What was measured:
# soybean [1] = assay: Test A postemergence; type: in vivo, Glycine max
# Outline: (§1)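 Loam/sand soil; pre-em directed soil spray at planting, post-em spray at 1–2 leaf (2–10 cm). Compound in non-phytotoxic solvent + surfactant. Greenhouse 10 d; visual injury vs untreated, 0 = no effect, 100 = complete control.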
# foxtail, giant [2] = assay: Test A preemergence; type: in vivo, Setaria faberi
# Outline: as §1
# horseweed = assay: Test A postemergence; type: in vivo, Erigeron canadensis
# Outline: as §1
# rice = assay: Test B flooded paddy test; type: in vivo, Oryza sativa; settings: 250 g ai/ha, Flood, 13 days, 0 to 100 scale (0 no effect, 100 complete control)
# Outline: (§2)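 Flooded to 3 cm at treatment time, 2-leaf plants got the test compound applied straight into the paddy water. They then stayed under constant flood in a greenhouse for 13 days. Ratings used a 0 to 100 visual scale.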
# pigweed, palmer [3] = assay: Test A postemergence; type: in vivo, Amaranthus palmeri
# Outline: as §1
# ryegrass, Italian [4] = assay: Test A preemergence; type: in vivo, Lolium multiflorum
# Outline: as §1
# goosegrass [5] = assay: Test A postemergence; type: in vivo, Eleusine indica
# Outline: as §1
# corn [6] = assay: Test A preemergence; type: in vivo, Zea mays
# Outline: as §1
# kochia [7] = assay: Test A postemergence; type: in vivo, Bassia scoparia
# Outline: as §1
# ducksalad = assay: Test B flooded paddy test; type: in vivo, Heteranthera limosa; settings: 250 g ai/ha, Flood, 13 days, 0 to 100 scale (0 no effect, 100 complete control)
# Outline: as §2
# corn [8] = assay: Test A postemergence; type: in vivo, Zea mays
# Outline: as §1
# ragweed [9] = assay: Test A preemergence; type: in vivo, Ambrosia artemisiifolia
# Outline: as §1
# galium = assay: Test A postemergence; type: in vivo, Galium aparine
# Outline: as §1
# pigweed, palmer [10] = assay: Test A preemergence; type: in vivo, Amaranthus palmeri
# Outline: as §1
# kochia [11] = assay: Test A preemergence; type: in vivo, Bassia scoparia
# Outline: as §1
# oat, wild [12] = assay: Test A postemergence; type: in vivo, Avena fatua
# Outline: as §1
# barnyardgrass = assay: Test B flooded paddy test; type: in vivo, Echinochloa crus-galli; settings: 250 g ai/ha, Flood, 13 days, 0 to 100 scale (0 no effect, 100 complete control)
# Outline: as §2
# foxtail, giant [13] = assay: Test A postemergence; type: in vivo, Setaria faberi
# Outline: as §1
# blackgrass [14] = assay: Test A postemergence; type: in vivo, Alopecurus myosuroides
# Outline: as §1
# oat, wild [15] = assay: Test A preemergence; type: in vivo, Avena fatua
# Outline: as §1
# ryegrass, Italian [16] = assay: Test A postemergence; type: in vivo, Lolium multiflorum
# Outline: as §1
# wheat [17] = assay: Test A postemergence; type: in vivo, Triticum aestivum
# Outline: as §1
# goosegrass [18] = assay: Test A preemergence; type: in vivo, Eleusine indica
# Outline: as §1
# sedge, umbrella = assay: Test B flooded paddy test; type: in vivo, Cyperus difformis; settings: 250 g ai/ha, Flood, 13 days, 0 to 100 scale (0 no effect, 100 complete control)
# Outline: as §2
# soybean [19] = assay: Test A preemergence; type: in vivo, Glycine max
# Outline: as §1
# ragweed [20] = assay: Test A postemergence; type: in vivo, Ambrosia artemisiifolia
# Outline: as §1
# wheat [21] = assay: Test A preemergence; type: in vivo, Triticum aestivum
# Outline: as §1
# blackgrass [22] = assay: Test A preemergence; type: in vivo, Alopecurus myosuroides
# Outline: as §1
# [23] = 125 g ai/ha, postemergence, 10 days, visual injury, 0 to 100 scale (0 no effect, 100 complete control)
# [24] = 500 g ai/ha, Postemergence, 0 to 100 scale
# [25] = 125 g ai/ha, visual injury after 10 days, 0 to 100 scale, 0 is no effect, 100 is complete control
# [26] = 500 g ai/ha, 0 to 100 scale (0 no effect, 100 complete control), 10 days
compound,measurement,setting,value
Cc1cccc2c1O[C@@H](C)CN2C(=O)c1cc(-n2cncn2)ccc1F [Compound 50],"Plant response rating, Soybean",soybean [1]; [23],100
same,"Plant response rating, Soybean",soybean [1]; [24],100
same,"Plant response rating, Foxtail, Giant","foxtail, giant [2]; [25]",90
same,"Plant response rating, Foxtail, Giant","foxtail, giant [2]; [26]",100
same,"Plant response rating, Horseweed",horseweed; [23],0
same,"Plant response rating, Horseweed",horseweed; [24],10
same,"Plant response rating, Rice",rice,0
same,"Plant response rating, Pigweed, Palmer","pigweed, palmer [3]; [23]",30
same,"Plant response rating, Pigweed, Palmer","pigweed, palmer [3]; [24]",30
same,"Plant response rating, Ryegrass, Italian","ryegrass, Italian [4]; [25]",80
same,"Plant response rating, Ryegrass, Italian","ryegrass, Italian [4]; [26]",90
same,"Plant response rating, Goosegrass",goosegrass [5]; [23],50
same,"Plant response rating, Goosegrass",goosegrass [5]; [24],90
same,"Plant response rating, Corn",corn [6]; [25],0
same,"Plant response rating, Corn",corn [6]; [26],0
same,"Plant response rating, Kochia",kochia [7]; [23],10
same,"Plant response rating, Kochia",kochia [7]; [24],70
same,"Plant response rating, Ducksalad",ducksalad,0
same,"Plant response rating, Corn",corn [8]; [23],30
same,"Plant response rating, Corn",corn [8]; [24],60
same,"Plant response rating, Ragweed",ragweed [9]; [25],0
same,"Plant response rating, Ragweed",ragweed [9]; [26],30
same,"Plant response rating, Galium",galium; [23],60
same,"Plant response rating, Galium",galium; [24],100
same,"Plant response rating, Pigweed, Palmer","pigweed, palmer [10]; [25]",0
same,"Plant response rating, Pigweed, Palmer","pigweed, palmer [10]; [26]",100
same,"Plant response rating, Kochia",kochia [11]; [25],0
same,"Plant response rating, Kochia",kochia [11]; [26],10
same,"Plant response rating, Oat, Wild","oat, wild [12]; [23]",20
same,"Plant response rating, Oat, Wild","oat, wild [12]; [24]",50
same,"Plant response rating, Barnyardgrass",barnyardgrass,0
same,"Plant response rating, Foxtail, Giant","foxtail, giant [13]; [23]",70
same,"Plant response rating, Foxtail, Giant","foxtail, giant [13]; [24]",90
same,"Plant response rating, Blackgrass",blackgrass [14]; [23],50
same,"Plant response rating, Blackgrass",blackgrass [14]; [24],70
same,"Plant response rating, Oat, Wild","oat, wild [15]; [25]",20
same,"Plant response rating, Oat, Wild","oat, wild [15]; [26]",90
same,"Plant response rating, Ryegrass, Italian","ryegrass, Italian [16]; [23]",50
same,"Plant response rating, Ryegrass, Italian","ryegrass, Italian [16]; [24]",80
same,"Plant response rating, Wheat",wheat [17]; [23],40
same,"Plant response rating, Wheat",wheat [17]; [24],70
same,"Plant response rating, Goosegrass",goosegrass [18]; [25],90
same,"Plant response rating, Goosegrass",goosegrass [18]; [26],100
same,"Plant response rating, Sedge, Umbrella","sedge, umbrella",0
same,"Plant response rating, Soybean",soybean [19]; [25],30
same,"Plant response rating, Soybean",soybean [19]; [26],90
same,"Plant response rating, Ragweed",ragweed [20]; [23],20
same,"Plant response rating, Ragweed",ragweed [20]; [24],40
same,"Plant response rating, Wheat",wheat [21]; [25],0
same,"Plant response rating, Wheat",wheat [21]; [26],50
same,"Plant response rating, Blackgrass",blackgrass [22]; [25],40
same,"Plant response rating, Blackgrass",blackgrass [22]; [26],80
